Broadly, the EC50 is the concentration giving half of the maximal effect. A high value points to a need for much substance.

Structures are written as SMILES. Where a SMILES comes first, the peptide text is derived from it. Bridges are numbered along the chain shown (N, C = ends). [ ]: non-standard residue; d: D form. NMeY = CN[C@@H](Cc1ccc(O)cc1)C(=O)O; R8 = C=CCCCCCC[C@@](C)(N)C(=O)O; S5 = C=CCCC[C@](C)(N)C(=O)O; Nle = CCCC[C@H](N)C(=O)O Some results are limits rather than exact numbers.

The target in the assay is T1, human GHRH receptor (hGHRHR) (Homo sapiens, UniProt Q02643).
T1 construct: expressed in transfected cells; host or cells: Human 293 cells
T1 sequence (Q02643 23-423): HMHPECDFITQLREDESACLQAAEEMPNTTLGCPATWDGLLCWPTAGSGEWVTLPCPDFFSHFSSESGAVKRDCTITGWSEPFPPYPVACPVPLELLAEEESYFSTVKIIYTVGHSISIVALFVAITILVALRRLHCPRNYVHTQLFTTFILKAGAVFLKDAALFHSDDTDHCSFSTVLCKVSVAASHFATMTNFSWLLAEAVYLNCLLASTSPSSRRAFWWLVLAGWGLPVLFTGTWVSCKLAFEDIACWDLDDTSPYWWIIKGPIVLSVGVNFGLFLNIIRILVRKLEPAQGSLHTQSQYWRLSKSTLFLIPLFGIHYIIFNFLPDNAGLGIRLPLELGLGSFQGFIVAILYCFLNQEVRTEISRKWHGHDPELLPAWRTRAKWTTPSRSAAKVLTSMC
Kind of assay: GHRHR agonism measured by cAMP (HTRF) in human 293 cells expressing hGHRHR.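 Note: receptor expressed transiently or stably, cells stimulated in serum-free medium, EC50 from a non-linear dose-response fit, maximal response defined by reference GHRH stimulation.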 Type of assay: cell-based. As to conditions: 30 min at RT.
Description: GHRH (1-29) and cross-linked peptidomimetic macrocycles were tested for agonism at the human GHRH receptor (hGHRHR) at various concentrations. Human 293 cells transiently or stably expressing hGHRHR were detached from cell culture flasks with versene (Life Technologies™), suspended in serum-free medium (50 k cells/assay point), and stimulated for 30 min at RT with GHRH (1-29) (Bachem™) or cross-linked peptidomimetic macrocycles. cAMP was quantified using an HTRF®-based assay (CisBio) and used according to the manufacturer's instructions. An EC50 for each agonist was calculated from a non-linear fit of response vs dose (GraphPad™ Prism). The maximum response was determined by stimulating with 10 μM GHRH (1-29). (+=>50 nm; ++=>25-50 nm; +++=>10-25 nm; ++++=>1-10 nm; +++++=≤1 nm).
`CCCC[C@H](NC(=O)[C@@H](NC(=O)[C@H](CC(=O)O)NC(=O)[C@H](CCC(N)=O)NC(=O)[C@H](CC(C)C)NC(=O)[C@H](C)NC(=O)[C@]1(C)CCCC=CCCC[C@](C)(NC(=O)[C@H](CCC(N)=O)NC(=O)[C@H](C)NC(=O)[C@H](CC(C)C)NC(=O)[C@@H](NC(=O)[C@H](CCCCN)NC(=O)[C@H](CCCNC(=N)N)NC(=O)[C@H](Cc2ccc(O)cc2)NC(=O)[C@H](CO)NC(=O)[C@H](C)NC(=O)[C@@H](NC(=O)[C@H](Cc2ccccc2)NC(=O)[C@@H](NC(=O)[C@H](C)NC(=O)[C@H](CC(=O)O)NC(=O)[C@H](C)NC(=O)[C@H](Cc2ccc(O)cc2)NC)[C@@H](C)CC)[C@@H](C)O)C(C)C)C(=O)N[C@@H](CO)C(=O)N[C@@H](C)C(=O)N[C@@H](CCCNC(=N)N)C(=O)N1)[C@@H](C)CC)C(=O)N[C@@H](CO)C(=O)N[C@@H](CCCNC(=N)N)C(N)=O` [SP-15] (H-[NMeY]ADAIFTASYRKVLAQ[S5]SAR[S5]ALQDI[Nle]SR-NH2; staple 17-21) returned a half-maximal effective concentration (EC50) of at most 1 nM.

Compound `CCCC[C@H](NC(=O)[C@@H](NC(=O)[C@H](CC(=O)O)NC(=O)[C@H](CCC(N)=O)NC(=O)[C@H](CC(C)C)NC(=O)[C@]1(C)CCCC=CCCC[C@](C)(NC(=O)[C@H](CC(C)C)NC(=O)[C@H](CCC(N)=O)NC(=O)[C@H](C)NC(=O)[C@H](CC(C)C)NC(=O)[C@@H](NC(=O)[C@H](CCCCN)NC(=O)[C@H](CCCNC(=N)N)NC(=O)[C@H](Cc2ccc(O)cc2)NC(=O)[C@H](CO)NC(=O)[C@H](C)NC(=O)[C@@H](NC(=O)[C@H](Cc2ccccc2)NC(=O)[C@@H](NC(=O)[C@H](C)NC(=O)[C@H](CC(=O)O)NC(=O)[C@H](C)NC(=O)[C@H](Cc2ccc(O)cc2)NC)[C@@H](C)CC)[C@@H](C)O)C(C)C)C(=O)N[C@@H](C)C(=O)N[C@@H](CCCNC(=N)N)C(=O)N[C@@H](CCCCN)C(=O)N1)[C@@H](C)CC)C(=O)N[C@@H](CO)C(=O)N[C@@H](CCCNC(=N)N)C(N)=O` [SP-16] (H-[NMeY]ADAIFTASYRKVLAQL[S5]ARK[S5]LQDI[Nle]SR-NH2; staple 18-22) yielded an EC50 of 1 to 10 nM.

For `CCCC[C@H](NC(=O)[C@@H](NC(=O)[C@]1(C)CCCC=CCCC[C@](C)(NC(=O)[C@H](CCCNC(=N)N)NC(=O)[C@H](C)NC(=O)[C@H](CO)NC(=O)[C@H](CC(C)C)NC(=O)[C@H](CCC(N)=O)NC(=O)[C@H](C)NC(=O)[C@H](CC(C)C)NC(=O)[C@@H](NC(=O)[C@H](CCCCN)NC(=O)[C@H](CCCNC(=N)N)NC(=O)[C@H](Cc2ccc(O)cc2)NC(=O)[C@H](CO)NC(=O)[C@H](C)NC(=O)[C@@H](NC(=O)[C@H](Cc2ccccc2)NC(=O)[C@@H](NC(=O)[C@H](C)NC(=O)[C@H](CC(=O)O)NC(=O)[C@H](C)NC(=O)[C@H](Cc2ccc(O)cc2)NC)[C@@H](C)CC)[C@@H](C)O)C(C)C)C(=O)N[C@@H](C)C(=O)N[C@@H](CC(C)C)C(=O)N[C@@H](CCC(N)=O)C(=O)N1)[C@@H](C)CC)C(=O)N[C@@H](CO)C(=O)N[C@@H](CCCNC(=N)N)C(N)=O` [SP-18] (H-[NMeY]ADAIFTASYRKVLAQLSAR[S5]ALQ[S5]I[Nle]SR-NH2; staple 21-25), the EC50 was in the range of 10 to 25 nM.

With `CCCC[C@H](NC(=O)[C@@H](NC(=O)[C@H](CC(=O)O)NC(=O)[C@H](CCC(N)=O)NC(=O)[C@H](CC(C)C)NC(=O)[C@H](C)NC(=O)[C@H](CCCCN)NC(=O)[C@H](CCCNC(=N)N)NC(=O)[C@H](C)NC(=O)[C@H](CO)NC(=O)[C@H](CC(C)C)NC(=O)[C@H](CCC(N)=O)NC(=O)[C@H](C)NC(=O)[C@H](CC(C)C)NC(=O)[C@@H](NC(=O)[C@]1(C)CCCC=CCCCCCC[C@@](C)(NC(=O)[C@H](C)NC(=O)[C@H](CC(=O)O)NC(=O)[C@H](C)NC(=O)[C@H](Cc2ccc(O)cc2)NC)C(=O)N[C@@H](Cc2ccccc2)C(=O)N[C@@H]([C@@H](C)O)C(=O)N[C@@H](C)C(=O)N[C@@H](CO)C(=O)N[C@@H](Cc2ccc(O)cc2)C(=O)N[C@@H](CCCNC(=N)N)C(=O)N1)C(C)C)[C@@H](C)CC)C(=O)N[C@@H](CO)C(=O)N[C@@H](CCCNC(=N)N)C(N)=O` [SP-24] (H-[NMeY]ADA[R8]FTASYR[S5]VLAQLSARKALQDI[Nle]SR-NH2; staple 5-12), the half-maximal effective concentration (EC50) lay in the range of 1 to 10 nM.

In turn, `CCCC[C@H](NC(=O)[C@@H](NC(=O)[C@H](CC(=O)O)NC(=O)[C@H](CCC(N)=O)NC(=O)[C@H](CC(C)C)NC(=O)[C@H](C)NC(=O)[C@H](CCCCN)NC(=O)[C@H](CCCNC(=N)N)NC(=O)[C@H](C)NC(=O)[C@H](CO)NC(=O)[C@H](CC(C)C)NC(=O)[C@H](CCC(N)=O)NC(=O)[C@]1(C)CCCC=CCCCCCC[C@@](C)(NC(=O)[C@@H](NC(=O)[C@H](Cc2ccccc2)NC(=O)[C@@H](NC(=O)[C@H](C)NC(=O)[C@H](CC(=O)O)NC(=O)[C@H](C)NC(=O)[C@H](Cc2ccc(O)cc2)NC)[C@@H](C)CC)[C@@H](C)O)C(=O)N[C@@H](CO)C(=O)N[C@@H](Cc2ccc(O)cc2)C(=O)N[C@@H](CCCNC(=N)N)C(=O)N[C@@H](CCCCN)C(=O)N[C@@H](C(C)C)C(=O)N[C@@H](CC(C)C)C(=O)N1)[C@@H](C)CC)C(=O)N[C@@H](CO)C(=O)N[C@@H](CCCNC(=N)N)C(N)=O` [SP-25] (H-[NMeY]ADAIFT[R8]SYRKVL[S5]QLSARKALQDI[Nle]SR-NH2; staple 8-15) registered an EC50 of 1 to 10 nM.

For the compound `CCCC[C@H](NC(=O)[C@@H](NC(=O)[C@H](CC(=O)O)NC(=O)[C@H](CCC(N)=O)NC(=O)[C@H](CC(C)C)NC(=O)[C@H](C)NC(=O)[C@]1(C)CCCC=CCCCCCC[C@@](C)(NC(=O)[C@@H](NC(=O)[C@H](CCCCN)NC(=O)[C@H](CCCNC(=N)N)NC(=O)[C@H](Cc2ccc(O)cc2)NC(=O)[C@H](CO)NC(=O)[C@H](C)NC(=O)[C@@H](NC(=O)[C@H](Cc2ccccc2)NC(=O)[C@@H](NC(=O)[C@H](C)NC(=O)[C@H](CC(=O)O)NC(=O)[C@H](C)NC(=O)[C@H](Cc2ccc(O)cc2)NC)[C@@H](C)CC)[C@@H](C)O)C(C)C)C(=O)N[C@@H](C)C(=O)N[C@@H](CCC(N)=O)C(=O)N[C@@H](CC(C)C)C(=O)N[C@@H](CO)C(=O)N[C@@H](C)C(=O)N[C@@H](CCCNC(=N)N)C(=O)N1)[C@@H](C)CC)C(=O)N[C@@H](CO)C(=O)N[C@@H](CCCNC(=N)N)C(N)=O` [SP-26] (H-[NMeY]ADAIFTASYRKV[R8]AQLSAR[S5]ALQDI[Nle]SR-NH2; staple 14-21), the EC50 is 10 to 25 nM.

Regarding `CCCC[C@H](NC(=O)[C@@H](NC(=O)[C@H](CC(=O)O)NC(=O)[C@H](CCC(N)=O)NC(=O)[C@H](CC(C)C)NC(=O)[C@]1(C)CCCC=CCCCCCC[C@@](C)(NC(=O)[C@H](CC(C)C)NC(=O)[C@@H](NC(=O)[C@H](CCCCN)NC(=O)[C@H](CCCNC(=N)N)NC(=O)[C@H](Cc2ccc(O)cc2)NC(=O)[C@H](CO)NC(=O)[C@H](C)NC(=O)[C@@H](NC(=O)[C@H](Cc2ccccc2)NC(=O)[C@@H](NC(=O)[C@H](C)NC(=O)[C@H](CC(=O)O)NC(=O)[C@H](C)NC(=O)[C@H](Cc2ccc(O)cc2)NC)[C@@H](C)CC)[C@@H](C)O)C(C)C)C(=O)N[C@@H](CCC(N)=O)C(=O)N[C@@H](CC(C)C)C(=O)N[C@@H](CO)C(=O)N[C@@H](C)C(=O)N[C@@H](CCCNC(=N)N)C(=O)N[C@@H](CCCCN)C(=O)N1)[C@@H](C)CC)C(=O)N[C@@H](CO)C(=O)N[C@@H](CCCNC(=N)N)C(N)=O` [SP-27] (H-[NMeY]ADAIFTASYRKVL[R8]QLSARK[S5]LQDI[Nle]SR-NH2; staple 15-22), the 50% effective concentration (EC50) was 1 to 10 nM.

(Values after patent US20180371044A1, “PEPTIDOMIMETIC MACROCYCLES” (Aileron Therapeutics, Inc., priority 2015, published 2018).)
